Results as given in ChEMBL document CHEMBL1201862, “PubChem BioAssay data set” (2004).
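Test compounds were applied to cells in 96-well plates for 48 hours at 5 doses. GI50: concentration for 50% inhibition of growth.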 Activity calls are given as the source filed them. Cut-off read from the data, not from the text of the source: active = GI50 up to about 1.1 µM and inactive = higher.

Columns and labels:
Assay in all cases: NCI anticancer screen, dose series, 48 h
786-0 = tested on: 786-0
A498 = tested on: A498
A549 = tested on: A549
ACHN = tested on: ACHN
CAKI-1 = tested on: CAKI-1
CCRF-CEM = tested on: CCRF-CEM
COLO 205 = tested on: COLO 205
DLD-1 = tested on: DLD-1
DMS-114 = tested on: DMS-114
DMS-273 = tested on: DMS-273
EKVX = tested on: EKVX
HCC 2998 = tested on: HCC 2998
HCT-116 = tested on: HCT-116
HCT-15 = tested on: HCT-15
HL-60 = tested on: HL-60
HOP-18 = tested on: HOP-18
HOP-92 = tested on: HOP-92
HT-29 = tested on: HT-29
IGROV-1 = tested on: IGROV-1
K562 = tested on: K562
KM-20L2 = tested on: KM-20L2
KM12 = tested on: KM12
LOX IMVI = tested on: LOX IMVI
LXFL 529 = tested on: LXFL 529
M14 = tested on: M14
M19-MEL = tested on: M19-MEL
MOLT-4 = tested on: MOLT-4
Malme-3M = tested on: Malme-3M
NCI-H226 = tested on: NCI-H226
NCI-H23 = tested on: NCI-H23
NCI-H460 = tested on: NCI-H460
NCI-H522 = tested on: NCI-H522
OVCAR-3 = tested on: OVCAR-3
OVCAR-4 = tested on: OVCAR-4
OVCAR-5 = tested on: OVCAR-5
OVCAR-8 = tested on: OVCAR-8
RPMI-8226 = tested on: RPMI-8226
RXF 393 = tested on: RXF 393
SF-268 = tested on: SF-268
SF-295 = tested on: SF-295
SF-539 = tested on: SF-539
SK-MEL-28 = tested on: SK-MEL-28
SK-MEL-2 = tested on: SK-MEL-2
SK-MEL-5 = tested on: SK-MEL-5
SK-OV-3 = tested on: SK-OV-3
SN12C = tested on: SN12C
SNB-19 = tested on: SNB-19
SNB-75 = tested on: SNB-75
SNB-78 = tested on: SNB-78
SW-620 = tested on: SW-620
TK-10 = tested on: TK-10
U-251 = tested on: U-251
UACC-257 = tested on: UACC-257
UACC-62 = tested on: UACC-62
UO-31 = tested on: UO-31
XF498 = tested on: XF498
HOP-62 = tested on: HOP-62
MCF7 = tested on: MCF7
NCI/ADR-RES = tested on: NCI/ADR-RES

Structure (SMILES): C=CCNC(=S)N/C=C1\C(=O)Oc2ccccc2C1=O
- GI50 (786-0): 55 µM (inactive)
- GI50 (A498): 56.8 µM (inactive)
- GI50 (A549): 93.8 µM (inactive)
- GI50 (ACHN): 32.1 µM (inactive)
- GI50 (CAKI-1): 22.2 µM (inactive)
- GI50 (CCRF-CEM): > 100 µM (inactive)
- GI50 (COLO 205): > 100 µM (inactive)
- GI50 (DLD-1): 41.1 µM (inactive)
- GI50 (DMS-114): 35.2 µM (inactive)
- GI50 (DMS-273): > 100 µM (inactive)
- GI50 (EKVX): > 100 µM (inactive)
- GI50 (HCC 2998): 68.4 µM (inactive)
- GI50 (HCT-116): 49.5 µM (inactive)
- GI50 (HCT-15): 60.5 µM
- GI50 (HL-60): > 100 µM (inactive)
- GI50 (HOP-18): 46.2 µM (inactive)
- GI50 (HOP-92): 30.5 µM (inactive)
- GI50 (HT-29): > 100 µM (inactive)
- GI50 (IGROV-1): 41.6 µM (inactive)
- GI50 (K562): > 100 µM (inactive)
- GI50 (KM-20L2): > 100 µM (inactive)
- GI50 (KM12): 87.5 µM (inactive)
- GI50 (LOX IMVI): 95.5 µM (inactive)
- GI50 (LXFL 529): > 100 µM (inactive)
- GI50 (M14): 63.4 µM (inactive)
- GI50 (M19-MEL): > 100 µM (inactive)
- GI50 (MOLT-4): > 100 µM (inactive)
- GI50 (Malme-3M): 27.4 µM (inactive)
- GI50 (NCI-H226): 28.9 µM (inactive)
- GI50 (NCI-H23): > 100 µM (inactive)
- GI50 (NCI-H460): > 100 µM (inactive)
- GI50 (NCI-H522): 65.6 µM (inactive)
- GI50 (OVCAR-3): 82 µM (inactive)
- GI50 (OVCAR-4): > 100 µM (inactive)
- GI50 (OVCAR-5): 62.4 µM (inactive)
- GI50 (OVCAR-8): 58.5 µM (inactive)
- GI50 (RPMI-8226): > 100 µM (inactive)
- GI50 (RXF 393): 19.3 µM (inactive)
- GI50 (SF-268): 36 µM (inactive)
- GI50 (SF-295): > 100 µM (inactive)
- GI50 (SF-539): 55.5 µM (inactive)
- GI50 (SK-MEL-28): > 100 µM (inactive)
- GI50 (SK-MEL-2): 13.2 µM (inactive)
- GI50 (SK-MEL-5): 43.8 µM (inactive)
- GI50 (SK-OV-3): 44.4 µM (inactive)
- GI50 (SN12C): 46.5 µM (inactive)
- GI50 (SNB-19): 59.4 µM (inactive)
- GI50 (SNB-75): 18.7 µM (inactive)
- GI50 (SNB-78): 43.9 µM (inactive)
- GI50 (SW-620): 74.6 µM (inactive)
- GI50 (TK-10): 64.7 µM (inactive)
- GI50 (U-251): 59.8 µM (inactive)
- GI50 (UACC-257): > 100 µM (inactive)
- GI50 (UACC-62): 46.3 µM (inactive)
- GI50 (UO-31): 27.5 µM (inactive)
- GI50 (XF498): 18.9 µM (inactive)

Structure (SMILES): CC(=O)C1C(c2ccccc2)C2(C)OC(=O)C(C#N)C12C (centres undefined)
- GI50 (786-0): > 100 µM (inactive)
- GI50 (A549): > 100 µM (inactive)
- GI50 (ACHN): > 100 µM (inactive)
- GI50 (CCRF-CEM): > 100 µM (inactive)
- GI50 (COLO 205): > 100 µM (inactive)
- GI50 (DLD-1): > 100 µM (inactive)
- GI50 (DMS-114): > 100 µM (inactive)
- GI50 (DMS-273): > 100 µM (inactive)
- GI50 (EKVX): > 100 µM (inactive)
- GI50 (HCT-116): > 100 µM (inactive)
- GI50 (HCT-15): > 100 µM
- GI50 (HL-60): > 100 µM (inactive)
- GI50 (HOP-18): > 100 µM (inactive)
- GI50 (IGROV-1): > 100 µM (inactive)
- GI50 (K562): > 100 µM (inactive)
- GI50 (KM-20L2): > 100 µM (inactive)
- GI50 (KM12): > 100 µM (inactive)
- GI50 (LOX IMVI): > 100 µM (inactive)
- GI50 (LXFL 529): > 100 µM (inactive)
- GI50 (M14): > 100 µM (inactive)
- GI50 (M19-MEL): > 100 µM (inactive)
- GI50 (MOLT-4): > 100 µM (inactive)
- GI50 (Malme-3M): > 100 µM (inactive)
- GI50 (NCI-H226): > 100 µM (inactive)
- GI50 (NCI-H23): > 100 µM (inactive)
- GI50 (NCI-H460): > 100 µM (inactive)
- GI50 (OVCAR-3): > 100 µM (inactive)
- GI50 (OVCAR-4): > 100 µM (inactive)
- GI50 (OVCAR-5): > 100 µM (inactive)
- GI50 (OVCAR-8): > 100 µM (inactive)
- GI50 (RPMI-8226): > 100 µM (inactive)
- GI50 (RXF 393): > 100 µM (inactive)
- GI50 (SF-268): > 100 µM (inactive)
- GI50 (SF-295): > 100 µM (inactive)
- GI50 (SF-539): > 100 µM (inactive)
- GI50 (SK-MEL-28): > 100 µM (inactive)
- GI50 (SK-MEL-2): > 100 µM (inactive)
- GI50 (SK-MEL-5): > 100 µM (inactive)
- GI50 (SK-OV-3): > 100 µM (inactive)
- GI50 (SN12C): > 100 µM (inactive)
- GI50 (SNB-19): > 100 µM (inactive)
- GI50 (SNB-75): > 100 µM (inactive)
- GI50 (SNB-78): > 100 µM (inactive)
- GI50 (SW-620): > 100 µM (inactive)
- GI50 (TK-10): > 100 µM (inactive)
- GI50 (U-251): > 100 µM (inactive)
- GI50 (UACC-62): > 100 µM (inactive)
- GI50 (UO-31): > 100 µM (inactive)
- GI50 (XF498): > 100 µM (inactive)

Structure (SMILES): CCCCCCCCCCCC1CCCC(C)N1 (centres undefined)
- GI50 (A498): 51.5 µM (inactive)
- GI50 (A549): 88.7 µM (inactive)
- GI50 (CAKI-1): 43.2 µM (inactive)
- GI50 (CCRF-CEM): 23.3 µM (inactive)
- GI50 (COLO 205): 36 µM (inactive)
- GI50 (DLD-1): 24.5 µM (inactive)
- GI50 (DMS-114): 56.2 µM (inactive)
- GI50 (DMS-273): 65.2 µM (inactive)
- GI50 (EKVX): 47.3 µM (inactive)
- GI50 (HCC 2998): 46.3 µM (inactive)
- GI50 (HCT-116): 36.8 µM (inactive)
- GI50 (HCT-15): 38.5 µM
- GI50 (HL-60): 10.8 µM (inactive)
- GI50 (HOP-18): 87.9 µM (inactive)
- GI50 (HOP-62): 43.3 µM (inactive)
- GI50 (HOP-92): 17.7 µM (inactive)
- GI50 (HT-29): 20.6 µM (inactive)
- GI50 (IGROV-1): 61.2 µM (inactive)
- GI50 (K562): 19.1 µM (inactive)
- GI50 (KM-20L2): 29 µM (inactive)
- GI50 (KM12): 30.9 µM (inactive)
- GI50 (LOX IMVI): 18.2 µM (inactive)
- GI50 (M19-MEL): 56.2 µM (inactive)
- GI50 (MCF7): 50 µM (inactive)
- GI50 (MOLT-4): 15.9 µM (inactive)
- GI50 (Malme-3M): 90.4 µM (inactive)
- GI50 (NCI-H226): 76.9 µM (inactive)
- GI50 (NCI-H23): 61.9 µM (inactive)
- GI50 (NCI-H460): 45.1 µM (inactive)
- GI50 (NCI-H522): 35.9 µM (inactive)
- GI50 (NCI/ADR-RES): 72.4 µM (inactive)
- GI50 (OVCAR-3): 72.9 µM (inactive)
- GI50 (OVCAR-4): 61.2 µM (inactive)
- GI50 (OVCAR-5): 80 µM (inactive)
- GI50 (OVCAR-8): 80 µM (inactive)
- GI50 (RPMI-8226): 23.2 µM (inactive)
- GI50 (RXF 393): 35.8 µM (inactive)
- GI50 (SF-268): 67.9 µM (inactive)
- GI50 (SF-295): 77.8 µM (inactive)
- GI50 (SF-539): 69.8 µM (inactive)
- GI50 (SK-MEL-28): 76.6 µM (inactive)
- GI50 (SK-MEL-2): 72.1 µM (inactive)
- GI50 (SK-MEL-5): 36.4 µM (inactive)
- GI50 (SK-OV-3): 75.2 µM (inactive)
- GI50 (SN12C): 53.1 µM (inactive)
- GI50 (SNB-19): 76.2 µM (inactive)
- GI50 (SNB-75): 65.8 µM (inactive)
- GI50 (SNB-78): 73.3 µM (inactive)
- GI50 (SW-620): 58.3 µM (inactive)
- GI50 (U-251): 59.3 µM (inactive)
- GI50 (UACC-257): 45.8 µM (inactive)
- GI50 (UACC-62): 36.7 µM (inactive)
- GI50 (UO-31): 41 µM (inactive)
- GI50 (XF498): 47.4 µM (inactive)
